{"source": "patent US20070021391A1", "about": "“Preventive/remedy for urinary disturbance” (priority 2003, published 2007)", "key": {"[1]": {"test_system": "butyrylcholine esterase/acetylcholine esterase", "conditions": "Literature 7; species not given; cited from earlier work"}, "[2]": {"test_system": "Hartley male guinea pig, urethane anesthesia", "test": "Pressure/flow study using guinea pig (Example 3)", "format": "in vivo", "conditions": "for Amount of urination, proportion for value before administration (%) / At maximum urine flow rate Inner pressure of bladder, proportion for value before administration (%) / Maximum urine flow rate, proportion for value before administration (%): i.v.; for Bladder compliance, proportion for value before administration (%) / Bladder volume, proportion for value before administration (%): iv; for change of the parameters at urination and at collection of urine (text): intravenous administration", "protocol": "A Hartley male guinea pig of 5 weeks old (Japan SLC) was used. After urethane anesthesia, the medial incision of the lower abdomen was carried out, and the bladder was exposed. Two injection needles (20G) with which a polyethylene tube (PE-100) was linked were inserted in the bladder, and one needle was used for injection of saline and another needle was used for measurement of the inner pressure of the bladder. The injection of saline was continuously carried out at a rate of 18 mL/h using a syringe pump (SP-100S, JMS, and Hiroshima), the injection was stopped after intermittent urination was confirmed 3 times at minimum, and the saline in the bladder was removed by suction. Injection was started again, and the injection was stopped when the raise of the inner pressure of the bladder just before urination was confirmed. The amount of urine excreted was measured by an electronic weighing machine (HX-400, A&D, and Tokyo) and the inner pressure of the bladder was measured using a pressure transducer (AP641G, NIPPON KODEN Corporation). The analogue data of the weight of urine and the inner pressure of the bladder were inputted in a multi-channel data analyzer (MP-100A-CE, Biopac systems), and analyzed by a proprietary software (Acqknowledge, Biopac systems). The sampling interval of data was 0.1 second and a low pass filter was applied to the data of discharge amount and urine flow rate at 0.5 Hz in order to remove noise. A delay time of 0.1 second in weighing the urine was rectified, and the urine flow rate was determined by differentiating the value of discharge amount. After a value before twice administration of the drug was measured, the drugs (the compound A, distigmine, neostigigmine and bethanechol) were intravenously administrated. Saline in the bladder was extracted after 10 minutes of administration of the compound A, bethanechol and neostigigmine and after 30 minutes of administration of distigmine, and injection was started again to measure data. The drugs were dissolved with distilled water so that administration volume was 0.5 mL/kg. Parameters (bladder volume, the amount of urination, the maximum urine flow rate, the inner pressure of the bladder at the maximum urine flow, bladder compliance) below were measured. The bladder compliance was calculated from intersection point (the threshold of bladder volume, threshold pressure) which was obtained by determining regression line in the respective curves of the inner pressure of the bladder at collection of urine and urinary reflex. The change rate before and after administration of the drug was calculated for the respective parameters and the calibration of significant difference was carried out by a solvent administration group and Dunnett calibration (Table 6 and Table 7)."}, "Butyrylcholine esterase [3]": {"molecular_target": "Butyrylcholine esterase (Equus caballus, UniProt P81908)", "sequence (P81908 whole entry)": "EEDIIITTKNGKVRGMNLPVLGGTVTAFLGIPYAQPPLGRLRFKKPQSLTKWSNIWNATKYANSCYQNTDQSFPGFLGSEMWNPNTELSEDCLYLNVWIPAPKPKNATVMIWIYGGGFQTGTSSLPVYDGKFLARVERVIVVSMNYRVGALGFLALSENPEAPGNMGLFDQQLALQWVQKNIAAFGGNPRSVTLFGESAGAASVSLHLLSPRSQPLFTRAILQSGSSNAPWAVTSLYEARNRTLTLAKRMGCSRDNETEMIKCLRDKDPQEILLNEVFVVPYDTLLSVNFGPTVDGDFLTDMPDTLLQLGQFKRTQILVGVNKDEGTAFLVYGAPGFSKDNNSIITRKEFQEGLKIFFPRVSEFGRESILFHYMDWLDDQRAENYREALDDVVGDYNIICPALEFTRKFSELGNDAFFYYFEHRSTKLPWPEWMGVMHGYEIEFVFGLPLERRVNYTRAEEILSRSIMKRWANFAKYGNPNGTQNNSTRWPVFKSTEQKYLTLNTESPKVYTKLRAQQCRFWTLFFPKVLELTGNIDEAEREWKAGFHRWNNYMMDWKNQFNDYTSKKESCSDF", "conditions": "read-out: Butyrylcholine esterase inhibitory activity (IC50); cited from earlier work"}, "Acetylcholine esterase [4]": {"molecular_target": "Acetylcholine esterase (Electrophorus electricus, UniProt O42275)", "sequence (O42275 24-633)": "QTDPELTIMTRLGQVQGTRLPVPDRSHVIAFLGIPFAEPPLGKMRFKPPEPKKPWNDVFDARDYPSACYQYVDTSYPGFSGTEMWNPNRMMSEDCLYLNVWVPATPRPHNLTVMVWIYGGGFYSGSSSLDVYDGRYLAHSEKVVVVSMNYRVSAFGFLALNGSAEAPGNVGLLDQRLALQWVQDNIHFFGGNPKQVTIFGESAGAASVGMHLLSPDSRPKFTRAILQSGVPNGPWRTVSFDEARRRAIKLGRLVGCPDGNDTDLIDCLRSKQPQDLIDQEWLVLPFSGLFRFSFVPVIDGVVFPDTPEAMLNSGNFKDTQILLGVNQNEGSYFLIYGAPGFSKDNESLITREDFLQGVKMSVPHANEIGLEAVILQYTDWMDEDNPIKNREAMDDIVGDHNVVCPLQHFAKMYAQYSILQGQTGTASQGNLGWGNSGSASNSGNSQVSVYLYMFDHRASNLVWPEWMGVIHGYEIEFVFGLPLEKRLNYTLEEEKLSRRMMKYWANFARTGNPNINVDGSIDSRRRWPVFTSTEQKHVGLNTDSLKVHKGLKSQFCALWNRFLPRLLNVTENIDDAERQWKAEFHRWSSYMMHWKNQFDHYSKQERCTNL", "conditions": "Electric eel; Literature 5 (tacrine line prints 6); read-out: Acetylcholine esterase inhibitory activity (IC50); cited from earlier work"}, "[5]": {"molecular_target": "T1, acetylcholine esterase of human erythrocyte origin (Homo sapiens, UniProt P22303)", "T1 construct": "acetylcholine esterase of human erythrocyte origin; purchased Sigma, St. Louis, Mo., USA; host or cells: human erythrocytes", "T1 sequence (P22303 32-617 isoform P22303-2 limits assumed)": "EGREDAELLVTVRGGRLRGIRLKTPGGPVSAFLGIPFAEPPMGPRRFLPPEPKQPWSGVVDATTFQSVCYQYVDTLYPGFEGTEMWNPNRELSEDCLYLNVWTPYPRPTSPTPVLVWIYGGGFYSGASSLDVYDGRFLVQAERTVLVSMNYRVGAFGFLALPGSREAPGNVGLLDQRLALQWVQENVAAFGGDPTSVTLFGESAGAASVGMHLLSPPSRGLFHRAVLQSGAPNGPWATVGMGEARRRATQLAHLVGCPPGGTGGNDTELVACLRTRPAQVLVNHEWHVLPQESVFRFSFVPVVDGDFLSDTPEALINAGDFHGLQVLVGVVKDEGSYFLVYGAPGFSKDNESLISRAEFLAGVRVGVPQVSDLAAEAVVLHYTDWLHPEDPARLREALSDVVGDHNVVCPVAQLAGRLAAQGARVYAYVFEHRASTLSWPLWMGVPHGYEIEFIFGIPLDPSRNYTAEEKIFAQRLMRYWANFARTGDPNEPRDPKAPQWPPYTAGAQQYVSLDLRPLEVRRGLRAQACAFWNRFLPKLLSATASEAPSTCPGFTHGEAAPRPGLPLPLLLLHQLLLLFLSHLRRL", "test": "biochemical", "format": "biochemical", "quoted_text": "(§1) The AChE inhibitory activity and the BuChE inhibitory activity were determined by a thiocholine method (Ellman method) using acetylcholine esterase of human erythrocyte origin (Sigma, St. Louis, Mo., USA) and butyrylcholine esterase of human serum origin (Biogenesis, Poole, UK). Acetylcholine esterase or butyrylcholine esterase was diluted to a concentration of 0.2 IU/mL with 80 mM tris-HCL buffers (pH=7.4) containing 0.3% bovine serum albumin (BSA) to prepare an enzyme preparation. […] The stock solution was diluted at 3-fold common ratio with 10% DMSO and 80 mM tris-HCl buffers containing 0.3% BSA. On a 96 wells microplate, 20 μL of the drug solution with a given concentration, 30 μL of 80 mM tris-HCl buffers containing 0.3% BSA and 50 μL of the enzyme preparation were distributed, and incubated at room temperature for 1 hour after shaking for 10 seconds. […] For the respective drugs, the test was repeated twice. The % of control of the increase in light absorption was calculated at each concentration with respect to the respective drugs. % of control=increase in light absorption of drug/increase in light absorption of control×100"}, "[6]": {"molecular_target": "T2, butyrylcholine esterase of human serum origin (Homo sapiens, UniProt P06276)", "T2 construct": "butyrylcholine esterase of human serum origin; purchased Biogenesis, Poole, UK; host or cells: human serum", "T2 sequence (P06276 29-602)": "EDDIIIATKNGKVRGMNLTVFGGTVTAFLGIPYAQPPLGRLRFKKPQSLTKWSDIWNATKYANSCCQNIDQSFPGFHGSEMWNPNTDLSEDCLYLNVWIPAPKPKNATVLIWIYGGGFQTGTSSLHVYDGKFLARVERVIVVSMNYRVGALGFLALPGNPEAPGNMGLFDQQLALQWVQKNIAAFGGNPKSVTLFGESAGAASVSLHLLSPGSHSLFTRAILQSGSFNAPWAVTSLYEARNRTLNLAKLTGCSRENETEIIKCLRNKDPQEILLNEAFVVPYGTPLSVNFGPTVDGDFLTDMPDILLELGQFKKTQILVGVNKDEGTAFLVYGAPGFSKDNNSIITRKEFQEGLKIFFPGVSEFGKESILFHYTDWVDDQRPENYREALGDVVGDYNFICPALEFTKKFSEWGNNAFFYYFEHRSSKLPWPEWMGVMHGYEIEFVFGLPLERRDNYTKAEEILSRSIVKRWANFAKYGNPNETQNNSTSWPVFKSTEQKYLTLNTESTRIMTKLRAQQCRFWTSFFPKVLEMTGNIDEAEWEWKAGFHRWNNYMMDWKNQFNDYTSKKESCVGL", "test": "biochemical", "format": "biochemical", "quoted_text": "as §1"}, "bladder muscle": {"test_system": "bladder muscle", "design": "species or system guinea pig", "conditions": "for Tension (%): 30 minutes, change of basic tension, 100 mM KCl contraction = 100%"}, "Butyrylcholine esterase [7]": {"molecular_target": "Butyrylcholine esterase (Rattus norvegicus, UniProt Q9JKC1)", "sequence (Q9JKC1 24-597)": "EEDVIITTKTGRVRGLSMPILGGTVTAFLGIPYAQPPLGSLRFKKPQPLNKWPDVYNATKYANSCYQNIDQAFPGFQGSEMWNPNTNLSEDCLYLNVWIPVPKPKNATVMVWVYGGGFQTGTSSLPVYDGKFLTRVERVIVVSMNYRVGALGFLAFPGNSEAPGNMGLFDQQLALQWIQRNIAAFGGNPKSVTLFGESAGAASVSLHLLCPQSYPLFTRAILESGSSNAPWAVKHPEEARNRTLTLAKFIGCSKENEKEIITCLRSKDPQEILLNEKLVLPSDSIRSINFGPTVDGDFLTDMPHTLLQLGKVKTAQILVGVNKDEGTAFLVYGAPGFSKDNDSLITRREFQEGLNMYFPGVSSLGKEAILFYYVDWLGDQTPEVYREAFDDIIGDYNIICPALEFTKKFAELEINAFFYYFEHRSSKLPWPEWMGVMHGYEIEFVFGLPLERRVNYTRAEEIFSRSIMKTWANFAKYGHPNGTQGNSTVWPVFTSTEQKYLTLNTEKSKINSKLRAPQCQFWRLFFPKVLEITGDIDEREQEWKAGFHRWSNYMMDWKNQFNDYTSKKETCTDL", "conditions": "Literature 6, read-out: Butyrylcholine esterase inhibitory activity (IC50); cited from earlier work"}, "Acetylcholine esterase [8]": {"molecular_target": "T3, Acetylcholine esterase (Rattus norvegicus, UniProt P37136)", "T3 sequence (P37136 32-614)": "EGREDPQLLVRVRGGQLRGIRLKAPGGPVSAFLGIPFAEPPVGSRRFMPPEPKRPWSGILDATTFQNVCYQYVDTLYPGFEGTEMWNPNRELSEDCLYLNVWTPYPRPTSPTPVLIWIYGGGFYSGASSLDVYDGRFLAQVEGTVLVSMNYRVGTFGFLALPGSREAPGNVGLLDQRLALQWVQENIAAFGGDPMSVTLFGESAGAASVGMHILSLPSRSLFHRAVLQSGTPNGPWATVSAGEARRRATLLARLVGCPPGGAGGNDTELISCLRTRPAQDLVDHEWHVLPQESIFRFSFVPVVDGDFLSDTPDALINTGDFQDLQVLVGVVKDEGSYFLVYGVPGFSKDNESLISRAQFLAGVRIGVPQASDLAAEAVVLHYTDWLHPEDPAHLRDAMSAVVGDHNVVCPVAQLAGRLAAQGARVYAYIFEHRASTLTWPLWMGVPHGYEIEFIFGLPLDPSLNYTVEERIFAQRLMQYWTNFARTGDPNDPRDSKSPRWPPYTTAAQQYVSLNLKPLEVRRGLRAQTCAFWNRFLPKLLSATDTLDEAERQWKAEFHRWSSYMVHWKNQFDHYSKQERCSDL", "conditions": "Literature 6, read-out: Acetylcholine esterase inhibitory activity (IC50); cited from earlier work"}}, "note": "Like-named read-outs stand apart in the source and are kept apart here.", "data": [{"smiles": "CCc1ccccc1NC(=O)Oc1ccc2c(c1)[C@]1(C)CCN(C)O[C@@H]1N2C", "note": "[Ganstigmine]", "values": [{"measurement": "Selectivity (butyrylcholine esterase/acetylcholine esterase)", "setting": "[1]", "value": 115}]}, {"smiles": "CN(C)C(=O)Oc1cccc([N+](C)(C)C)c1", "note": "[Neostigigmine]", "values": [{"measurement": "Amount of urination, proportion for value before administration (%)", "setting": "[2]; 0.01 mg/kg", "value": "107.7 ± 17.2", "unit": "%"}, {"measurement": "At maximum urine flow rate Inner pressure of bladder, proportion for value before administration (%)", "setting": "[2]; 0.01 mg/kg", "value": "112.3 ± 4.2", "unit": "%"}, {"measurement": "Maximum urine flow rate, proportion for value before administration (%)", "setting": "[2]; 0.01 mg/kg", "value": "79.4 ± 11.5", "unit": "%"}, {"measurement": "Bladder compliance, proportion for value before administration (%)", "setting": "[2]; 0.01 mg/kg", "value": "61.5 ± 8.6", "unit": "%"}, {"measurement": "Bladder volume, proportion for value before administration (%)", "setting": "[2]; 0.01 mg/kg", "value": "81.1 ± 8.9", "unit": "%"}, {"measurement": "Amount of urination, proportion for value before administration (%)", "setting": "[2]; 0.03 mg/kg", "value": "91.6 ± 14.9", "unit": "%"}, {"measurement": "At maximum urine flow rate Inner pressure of bladder, proportion for value before administration (%)", "setting": "[2]; 0.03 mg/kg", "value": "128.5 ± 10.9", "unit": "%"}, {"measurement": "Maximum urine flow rate, proportion for value before administration (%)", "setting": "[2]; 0.03 mg/kg", "value": "67.2 ± 9.9", "unit": "%"}, {"measurement": "Bladder compliance, proportion for value before administration (%)", "setting": "[2]; 0.03 mg/kg", "value": "59.4 ± 9.1", "unit": "%"}, {"measurement": "Bladder volume, proportion for value before administration (%)", "setting": "[2]; 0.03 mg/kg", "value": "86.4 ± 7.5", "unit": "%"}, {"measurement": "Amount of urination, proportion for value before administration (%)", "setting": "[2]; 0.1 mg/kg", "value": "58.3 ± 16.4", "unit": "%"}, {"measurement": "At maximum urine flow rate Inner pressure of bladder, proportion for value before administration (%)", "setting": "[2]; 0.1 mg/kg", "value": "130.9 ± 8.7", "unit": "%"}, {"measurement": "Maximum urine flow rate, proportion for value before administration (%)", "setting": "[2]; 0.1 mg/kg", "value": "54.0 ± 13.8", "unit": "%"}, {"measurement": "Bladder compliance, proportion for value before administration (%)", "setting": "[2]; 0.1 mg/kg", "value": "31.7 ± 7.1", "unit": "%"}, {"measurement": "Bladder volume, proportion for value before administration (%)", "setting": "[2]; 0.1 mg/kg", "value": "66.5 ± 14.7", "unit": "%"}, {"measurement": "change of the parameters at urination and at collection of urine (text)", "setting": "[2]", "value": "lowered the bladder compliance significantly"}, {"measurement": "change of the parameters at urination and at collection of urine (text)", "setting": "[2]; listed as neostigigmine", "value": "did not show clear action for the amount of urination and the maximum urine flow rate and increased urination pressure significantly"}, {"measurement": "IC50", "setting": "Butyrylcholine esterase [3]", "value": 100, "unit": "nM"}, {"measurement": "IC50", "setting": "Acetylcholine esterase [4]", "value": 5, "unit": "µM"}, {"measurement": "inhibition of the activity of human acetylcholine esterase", "setting": "[5]", "value": "inhibited the activity of human acetylcholine esterase"}, {"measurement": "IC50", "setting": "[6]", "value": 600, "unit": "nM"}, {"measurement": "inhibitory activity for human butyrylcholine esterase", "setting": "[6]", "value": "inhibitory activity was confirmed"}, {"measurement": "Tension (%)", "setting": "bladder muscle; 0.01 μM", "value": "−0.95 ± 0.37", "unit": "%"}, {"measurement": "Tension (%)", "setting": "bladder muscle; 0.03 μM", "value": "−0.31 ± 0.25", "unit": "%"}, {"measurement": "Tension (%)", "setting": "bladder muscle; 0.1 μM", "value": "1.52 ± 0.37", "unit": "%"}, {"measurement": "Tension (%)", "setting": "bladder muscle; 0.3 μM", "value": "6.87 ± 1.25", "unit": "%"}, {"measurement": "Tension (%)", "setting": "bladder muscle; 1 μM", "value": "17.78 ± 2.25", "unit": "%"}, {"measurement": "effect on basic tension", "setting": "bladder muscle; drug alone", "value": "increased basic tension significantly and concentration-dependently"}]}, {"smiles": "O=C(CCC1CCN(Cc2ccccc2)CC1)c1ccc2c(c1)NCCCC2", "note": "[TAK-147]", "values": [{"measurement": "IC50", "setting": "Butyrylcholine esterase [7]", "value": 24, "unit": "µM"}, {"measurement": "IC50", "setting": "Acetylcholine esterase [8]", "value": 51, "unit": "nM"}]}]}
